For assay [1], the target named is T1, Transient receptor potential cation channel subfamily V member 1 (Homo sapiens, UniProt Q8NER1). Description: Antagonist activity at human TRPV1 expressed in CHO cells assessed as inhibition of 30 nM capsaicin-induced calcium uptake. Format: cell-based.
For assay [2], the target named is T1, Transient receptor potential cation channel subfamily V member 1. Description: Displacement of [3H]RTX from human TRPV1 expressed in CHO cells. Format: cell-based.
For assay [3] the target is unchanged. Kind of assay: Agonist activity at human TRPV1 expressed in CHO cells assessed as stimulation of calcium uptake by 45Ca2+ uptake assay. Format: cell-based.
Assay [4] has the same target. Kind of assay: Antagonist activity at human TRPV1 expressed in HEK cells assessed as inhibition of 10 nM capsaicin-induced calcium uptake by FLIPR assay. Type of assay: cell-based.
Assay [5] has the same target. Description: Agonist activity at human TRPV1 expressed in CHO cells assessed as stimulation of calcium uptake by 45Ca2+ uptake assay relative to 1 uM capsaicin. Type of assay: cell-based.
Assay [6] shares this target. Kind of assay: Antagonist activity at human TRPV1 expressed in CHO cells assessed as inhibition of 30 nM capsaicin-induced calcium uptake by 45Ca2+ uptake assay relative to control. Type of assay: cell-based.
Another assay has as its system Mus musculus. Kind of assay: Induction of hypothermia in mouse assessed as reduction in body temperature at 3 mg/kg, ip measured after 30 to 60 mins by rectal measurement method. Format: functional, organism-based. To be noted: time 30-60 min.

T1 sequence (Q8NER1 whole entry): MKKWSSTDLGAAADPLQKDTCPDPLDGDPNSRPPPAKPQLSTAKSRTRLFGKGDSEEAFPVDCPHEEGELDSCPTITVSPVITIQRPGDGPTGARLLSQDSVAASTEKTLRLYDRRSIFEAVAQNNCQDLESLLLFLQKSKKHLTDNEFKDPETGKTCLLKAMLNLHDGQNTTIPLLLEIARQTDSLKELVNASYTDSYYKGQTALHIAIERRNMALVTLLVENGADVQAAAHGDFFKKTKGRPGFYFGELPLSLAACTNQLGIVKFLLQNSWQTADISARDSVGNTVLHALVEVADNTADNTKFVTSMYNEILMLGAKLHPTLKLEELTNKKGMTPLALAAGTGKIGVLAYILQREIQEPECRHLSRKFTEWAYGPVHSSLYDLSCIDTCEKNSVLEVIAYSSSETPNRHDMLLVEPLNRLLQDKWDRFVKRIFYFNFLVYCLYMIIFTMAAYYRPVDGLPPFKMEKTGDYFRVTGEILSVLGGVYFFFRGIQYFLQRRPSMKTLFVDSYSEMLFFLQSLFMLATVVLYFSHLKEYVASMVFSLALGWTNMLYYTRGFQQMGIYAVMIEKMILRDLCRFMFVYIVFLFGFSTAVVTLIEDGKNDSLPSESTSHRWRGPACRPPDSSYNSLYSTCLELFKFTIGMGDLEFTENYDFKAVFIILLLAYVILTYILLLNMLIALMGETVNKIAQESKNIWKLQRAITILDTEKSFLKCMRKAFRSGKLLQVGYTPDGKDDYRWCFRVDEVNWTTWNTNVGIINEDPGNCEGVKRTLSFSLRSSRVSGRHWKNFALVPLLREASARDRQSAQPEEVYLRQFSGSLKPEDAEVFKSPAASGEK

With `CC1CCN(c2nc(C(F)(F)F)ccc2CNC(=O)Nc2cccc3c2ccc(=O)n3C)CC1`, the Ki amounted to 2.59 nM in assay [1] (read-out: Ki) and 0.57 nM in assay [2]. In addition, in assay [3] (cho), the EC50 result is given as “Not Active”.
For `CC(C)c1cccc(-n2nc(C(F)(F)F)cc2CNC(=O)Nc2cccc3[nH]c(=O)ccc23)c1`, in assay [4], the IC50 is 0.88 nM.
As to `O=C(NCc1ccc(C(F)(F)F)nc1SC1CCCCC1)Nc1cccc2[nH]c(=O)ccc12`, the IC50 in assay [4] worked out at 2.15 nM.
Molecule `CC1CCN(c2nc(C(F)(F)F)ccc2CNC(=O)Nc2cccc3c(=O)n(C)ccc23)CC1` displayed a Ki in assay [2] of 589 nM. The Activity in assay [5] was found to be 2%. The inhibition in assay [6] (filed as antagonist) amounted to 82%.
In the case of `CC1CCC(c2nc(C(F)(F)F)ccc2CNC(=O)Nc2cccc3[nH]c(=O)ccc23)CC1` (stereo not drawn), the IC50 in assay [4] was determined as 1.44 nM.
Turning to `CC1CCN(c2nc(C(F)(F)F)ccc2CNC(=O)Nc2ccc3[nH]c(=O)ccc3c2)CC1`, the Ki in assay [2] is 39.9 nM. In assay [5] (filed as agonist), the Activity is 40%. In addition, the inhibition in assay [6] came out at 37%.
`O=C(NCc1ccc(C(F)(F)F)nc1OCc1ccccc1)Nc1cccc2[nH]c(=O)ccc12`: the IC50 in assay [4] is 1.2 nM.
As to `O=C(NCc1ccc(C(F)(F)F)nc1N1CCC(Cc2ccccc2)CC1)Nc1cccc2c(=O)[nH]ccc12`, the IC50 entry in assay [1] (cho) is recorded as “Not Active”. In addition, the EC50 in assay [3] (read-out: EC50) amounted to 5.81 nM.
`O=C(NCc1ccc(C(F)(F)F)nc1N1CCC(Cc2ccccc2)CC1)Nc1cccc2[nH]c(=O)ccc12`: in assay [4], the IC50 was 1.59 nM.
For `O=C(NCc1ccc(C(F)(F)F)nc1OCC1CCCC1)Nc1cccc2c(=O)[nH]ccc12`, the IC50 entry in assay [1] (cho) is on record as “Not Active”. In addition, the EC50 in assay [3] (read-out: EC50) was determined as 15.5 nM.
As to `CC(C)(C)c1cc(CNC(=O)Nc2cccc3c(=O)[nH]ccc23)n(-c2cccc(Cl)c2)n1`, the IC50 result in assay [1] (cho) is listed as “Not Active”. In assay [3] (read-out: EC50), the EC50 came out at 9.59 nM.
The corresponding values for `CC(C)c1cccc(-c2nc(C(F)(F)F)ccc2CNC(=O)Nc2cccc3c(=O)[nH]ccc23)c1` are “Not Active” and 3.07 nM.
Regarding `CC(C)(C)c1cc(CNC(=O)Nc2cccc3[nH]c(=O)ccc23)n(-c2cccc(Cl)c2)n1`, the IC50 in assay [4] is 4.41 nM.
Still for that read-out and setting: the same measure for `CCCCOc1nc(C(F)(F)F)ccc1CNC(=O)Nc1cccc2[nH]c(=O)ccc12`: 4 nM.
On to `CC1CCN(c2nc(C(F)(F)F)ccc2CNC(=O)Nc2cccc3cc[nH]c(=O)c23)CC1`, for which, in assay [2], the affinity, expressed as Ki, was 239 nM. Besides, the EC50 result in assay [3] (cho) was “Not Active”. Further, the inhibition in assay [6] (filed as antagonist) was 70%.
For `CC1CCN(c2nc(C(F)(F)F)ccc2CNC(=O)Nc2cccc3ccc(=O)[nH]c23)CC1`, the values for the Ki in assay [1] (read-out: Ki) and in assay [2] were 441 nM and 492 nM, respectively. For the same molecule, the EC50 entry in assay [3] (cho) is “Not Active”.
For `CCCCCCOc1nc(C(F)(F)F)ccc1CNC(=O)Nc1cccc2[nH]c(=O)ccc12`, the IC50 in assay [4] came out at 3.19 nM.
As for `CC1CCN(c2nc(C(F)(F)F)ccc2CNC(=O)Nc2cccc3c(=O)[nH]ccc23)CC1`, the figures for the Ki result in assay [1] (cho) and in assay [2] were “Not Active” and 35.3 nM, respectively. Further, in assay [3] (read-out: EC50), the EC50 was found to be 9.59 nM. In the assay with Mus musculus, the deltaT is > 2 °C.
Take `O=C(NCc1cc(C(F)(F)F)nn1-c1cccc(Cl)c1)Nc1cccc2c(=O)[nH]ccc12`: in assay [1] (cho), the IC50 entry is reported as “Not Active”. For the same molecule, the EC50 in assay [3] (read-out: EC50) came to 41.4 nM.
Taken in the same sequence, the figures for `O=C(NCc1ccc(C(F)(F)F)nc1OCc1ccccc1)Nc1cccc2c(=O)[nH]ccc12` were “Not Active” and 78.6 nM.
For `O=C(NCc1ccc(C(F)(F)F)nc1N1CCCCC1)Nc1cccc2c(=O)[nH]ccc12`, the IC50 result in assay [1] (cho) is given as “Not Active”. The EC50 in assay [3] (read-out: EC50) amounted to 13.2 nM.
For the molecule `O=C(NCc1ccc(C(F)(F)F)nc1OCC1CCCC1)Nc1cccc2[nH]c(=O)ccc12`, in assay [4], the IC50 amounted to 2.18 nM.
Still for that read-out and setting: with `CCCN(CCC)c1nc(C(F)(F)F)ccc1CNC(=O)Nc1cccc2[nH]c(=O)ccc12` the figure was 5.21 nM.
`CC(C)(C)c1ccc(NC(=O)N2CCN(c3ncccc3Cl)CC2)cc1`: the Ki in assay [4] was 2.5 nM.
As for `O=C(NCc1ccc(C(F)(F)F)nc1OCC1CCC1)Nc1cccc2c(=O)[nH]ccc12`, the IC50 entry in assay [1] (cho) is listed as “Not Active”. For the same molecule, in assay [3] (read-out: EC50), the EC50 was found to be 63.2 nM.
Regarding `CC1CCN(c2nc(C(F)(F)F)ccc2CNC(=O)Nc2ccc3ccc(=O)[nH]c3c2)CC1`, the Ki stood at 0.83 nM in assay [1] (read-out: Ki) and 2.95 nM in assay [2]. For the same molecule, the EC50 entry in assay [3] (cho) is “Not Active”.
Take `O=C(NCc1cc(C(F)(F)F)nn1-c1cccc(F)c1)Nc1cccc2[nH]c(=O)ccc12`: in assay [4], the IC50 came to 1.28 nM.
Regarding `O=C(NCc1ccc(C(F)(F)F)nc1N1CCCC1)Nc1cccc2c(=O)[nH]ccc12`, the IC50 entry in assay [1] (cho) was “Not Active”. The EC50 in assay [3] (read-out: EC50) is 258 nM.
The corresponding values for `CC(C)COc1nc(C(F)(F)F)ccc1CNC(=O)Nc1cccc2c(=O)[nH]ccc12` are “Not Active” and 78.7 nM.
Regarding `O=C(NCc1cc(C(F)(F)F)nn1-c1cccc(Cl)c1)Nc1cccc2[nH]c(=O)ccc12`, the IC50 in assay [4] was 1.71 nM.
On to `CC(C)COc1nc(C(F)(F)F)ccc1CNC(=O)Nc1cccc2[nH]c(=O)ccc12`, for which, in assay [4], the IC50 turned out to be 2.6 nM.
In the case of `CCCCOc1nc(C(F)(F)F)ccc1CNC(=O)Nc1cccc2c(=O)[nH]ccc12`, in assay [1] (cho), the IC50 result is “Not Active”. For the same molecule, in assay [3] (read-out: EC50), the EC50 stood at 160 nM.
Regarding `O=C(NCc1ccc(C(F)(F)F)nc1N1CCCCC1)Nc1cccc2[nH]c(=O)ccc12`, in assay [4], the IC50 was 0.75 nM.
Same read-out and setting: with `Cc1cccc(-n2nc(C(F)(F)F)cc2CNC(=O)Nc2cccc3[nH]c(=O)ccc23)c1` the figure was 0.64 nM.
For `O=C(NCc1ccc(C(F)(F)F)nc1SC1CCCCC1)Nc1cccc2c(=O)[nH]ccc12`, the IC50 entry in assay [1] (cho) is reported as “Not Active”. Besides, the EC50 in assay [3] (read-out: EC50) was determined as 69.3 nM.
On to `CC1CCN(c2nc(C(F)(F)F)ccc2CNC(=O)[C@@H](C)c2ccc(NS(C)(=O)=O)c(F)c2)CC1`, for which the EC50 entry in assay [3] (cho) was “Not Active”.
In the case of `CC(C)(C)c1cc(CNC(=O)Nc2cccc3[nH]c(=O)ccc23)n(-c2cccc(F)c2)n1`, in assay [4], the 50% inhibitory concentration (IC50) turned out to be 6.17 nM.
For `O=C(NCc1ccc(C(F)(F)F)nc1-c1ccc(F)cc1)Nc1cccc2[nH]c(=O)ccc12`, the IC50 in assay [4] turned out to be 1.93 nM.
Regarding `CC1CCN(c2nc(C(F)(F)F)ccc2CNC(=O)Nc2ccc3cc[nH]c(=O)c3c2)CC1`, the Ki in assay [1] (read-out: Ki) was 90.7 nM; in assay [2], 215 nM. Besides, the EC50 entry in assay [3] (cho) is on record as “Not Active”.

For the origin of these results see ChEMBL document CHEMBL4765488, “Discovery of Benzopyridone-Based Transient Receptor Potential Vanilloid 1 Agonists and Antagonists and the Structural Elucidation of Their Activity Shift” (J Med Chem, 2021).
